Test results from ChEMBL document CHEMBL6103626, “Structure-Based Design of New LSD1/EGFRL858R/T790M Dual Inhibitors for Treating EGFR Mutant NSCLC Cancers” (J Med Chem, 2025).
Activity calls are given as the source filed them. The calls are words filed in the database; no cut-off is given here.

Tests used:
[1] = Tmax in Sprague-Dawley rat at 40 mg/kg, po measured for 24 hrs by LC-MS/MS analysis; assay type: ADME, organism-based; conditions: in vivo
[2] = test system: Osimertinib-resistant NCI-H1975 cell; test: Antiproliferative activity against human Osimertinib-resistant NCI-H1975 cells measured after 72 hrs by SRB assay
[3] = Antiproliferative activity against human PC9 Gefitinib-resistant (GR) cells measured after 72 hrs by SRB assay; conditions: PC9 Gefitinib-resistant (GR) cell
[4] = Clearance in Sprague-Dawley rat at 10 mg/kg, iv measured for 24 hrs by LC-MS/MS analysis; assay type: ADME, organism-based; conditions: in vivo
[5] = Toxicity in athymic nude BALB/c mouse xenografted with human NCI-H1975 cells assessed as body weight loss at 3 mg/kg, po daily for 27 days; assay type: organism-based; conditions: in vivo, 648 h, time 27 day
[6] = MRTlast in Sprague-Dawley rat at 10 mg/kg, iv measured for 24 hrs by LC-MS/MS analysis; assay type: ADME, organism-based; conditions: in vivo
[7] = AUClast in Sprague-Dawley rat at 10 mg/kg, iv measured for 24 hrs by LC-MS/MS analysis; assay type: ADME, organism-based; conditions: in vivo
[8] = MRT (infinity) in Sprague-Dawley rat at 10 mg/kg, iv measured for 24 hrs by LC-MS/MS analysis; assay type: ADME, organism-based; conditions: in vivo
LSD1/CoREST complex [9] = biological target: T1, LSD1/CoREST complex (Homo sapiens, UniProt O60341); test: Non-competitive inhibition of LSD1/CoREST (unknown origin) using H3K4me2 as substrate incubated for 0.5 hrs by ELISA; assay type: protein-complex assay
A-431 = test: Antiproliferative activity against human A-431 cells expressing wild-type EGFR measured after 72 hrs by SRB assay; conditions: A-431, 72 h
[10] = AUC (infinity) in Sprague-Dawley rat at 10 mg/kg, iv measured for 24 hrs by LC-MS/MS analysis; assay type: ADME, organism-based; conditions: in vivo
[11] = AUClast in Sprague-Dawley rat at 40 mg/kg, po measured for 24 hrs by LC-MS/MS analysis; assay type: ADME, organism-based; conditions: in vivo
[12] = Oral bioavailability in Sprague-Dawley rat at 40 mg/kg measured for 24 hrs by LC-MS/MS analysis; assay type: ADME, organism-based; conditions: in vivo
[13] = Antiproliferative activity against human PC9-OR cells measured after 72 hrs by SRB assay
[14] = Toxicity in athymic nude BALB/c mouse xenografted with human NCI-H1975 cells assessed as drug tolerance at 3 mg/kg, po daily for 27 days; assay type: organism-based; conditions: in vivo, 648 h, time 27 day
LSD1/CoREST complex [15] = biological target: T1, LSD1/CoREST complex; test: Inhibition of full-length recombinant LSD1 (123 to 852 residues)(unknown origin)/CoREST (305 to 482 residues)(unknown origin) extracted from Escherichia coli using H3K4me2 as substrate preincubated for 5 mins followed by substrate addition measured after 30 mins by HRP/Amplex Red based fluorescence assay; assay type: protein-complex assay
NCI-H1975 [16] = test: Antitumor activity against human NCI-H1975 cells xenografted in athymic nude BALB/c mouse at 3 mg/kg, po daily for 27 days relative to control; assay type: functional; conditions: NCI-H1975, 648 h, time 27 day, read-out: TGI
[17] = biological target: Epidermal growth factor receptor (Homo sapiens, UniProt P00533, L858R/T790M); test: Inhibition of EGFR L858R/T790M mutant (unknown origin) using Glu/Tyr as substrate incubated for 1 hr by ELISA
Epidermal growth factor receptor (Homo sapiens, UniProt P00533, L858R/T790M), sequence (P00533 25-1210 T790M/L858R limits assumed): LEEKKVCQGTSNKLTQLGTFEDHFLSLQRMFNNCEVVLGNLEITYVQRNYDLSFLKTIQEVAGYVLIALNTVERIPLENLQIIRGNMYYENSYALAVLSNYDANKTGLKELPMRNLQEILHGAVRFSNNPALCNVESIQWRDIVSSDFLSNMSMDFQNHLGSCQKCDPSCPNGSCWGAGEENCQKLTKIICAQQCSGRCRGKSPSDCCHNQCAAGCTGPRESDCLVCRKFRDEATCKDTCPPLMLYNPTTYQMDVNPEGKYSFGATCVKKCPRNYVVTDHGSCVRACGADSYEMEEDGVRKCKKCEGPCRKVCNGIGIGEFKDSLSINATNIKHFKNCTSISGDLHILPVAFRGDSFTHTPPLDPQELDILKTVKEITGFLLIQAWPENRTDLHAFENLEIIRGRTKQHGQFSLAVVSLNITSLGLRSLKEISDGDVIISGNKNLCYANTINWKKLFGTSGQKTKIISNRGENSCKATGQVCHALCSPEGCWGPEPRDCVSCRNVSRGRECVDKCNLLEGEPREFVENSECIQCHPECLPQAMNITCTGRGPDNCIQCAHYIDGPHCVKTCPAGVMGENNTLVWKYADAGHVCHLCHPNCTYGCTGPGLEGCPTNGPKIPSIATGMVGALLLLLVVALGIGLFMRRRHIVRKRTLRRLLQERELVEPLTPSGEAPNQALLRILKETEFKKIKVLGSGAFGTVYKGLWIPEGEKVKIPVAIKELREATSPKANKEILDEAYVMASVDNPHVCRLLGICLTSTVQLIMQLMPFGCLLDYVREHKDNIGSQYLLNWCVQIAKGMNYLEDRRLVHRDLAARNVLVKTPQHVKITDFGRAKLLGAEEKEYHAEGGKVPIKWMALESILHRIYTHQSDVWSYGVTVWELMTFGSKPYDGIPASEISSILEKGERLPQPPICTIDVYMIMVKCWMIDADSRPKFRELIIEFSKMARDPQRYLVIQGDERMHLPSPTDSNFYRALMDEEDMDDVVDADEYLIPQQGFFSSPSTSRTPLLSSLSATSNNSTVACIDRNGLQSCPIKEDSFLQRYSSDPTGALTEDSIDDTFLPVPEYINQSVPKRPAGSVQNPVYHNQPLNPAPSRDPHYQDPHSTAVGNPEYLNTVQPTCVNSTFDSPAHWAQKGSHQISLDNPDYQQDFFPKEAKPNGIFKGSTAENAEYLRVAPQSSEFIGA

[18] = Volume of distribution at steady state in Sprague-Dawley rat at 10 mg/kg, iv measured for 24 hrs by LC-MS/MS analysis; assay type: ADME, organism-based; conditions: in vivo, read-out: Vdss
[19] = biological target: Epidermal growth factor receptor (Homo sapiens, UniProt P00533); test: Inhibition of wild-type EGFR (unknown origin) using Glu/Tyr as substrate incubated for 1 hr by ELISA
Epidermal growth factor receptor (Homo sapiens, UniProt P00533), sequence (P00533 whole entry): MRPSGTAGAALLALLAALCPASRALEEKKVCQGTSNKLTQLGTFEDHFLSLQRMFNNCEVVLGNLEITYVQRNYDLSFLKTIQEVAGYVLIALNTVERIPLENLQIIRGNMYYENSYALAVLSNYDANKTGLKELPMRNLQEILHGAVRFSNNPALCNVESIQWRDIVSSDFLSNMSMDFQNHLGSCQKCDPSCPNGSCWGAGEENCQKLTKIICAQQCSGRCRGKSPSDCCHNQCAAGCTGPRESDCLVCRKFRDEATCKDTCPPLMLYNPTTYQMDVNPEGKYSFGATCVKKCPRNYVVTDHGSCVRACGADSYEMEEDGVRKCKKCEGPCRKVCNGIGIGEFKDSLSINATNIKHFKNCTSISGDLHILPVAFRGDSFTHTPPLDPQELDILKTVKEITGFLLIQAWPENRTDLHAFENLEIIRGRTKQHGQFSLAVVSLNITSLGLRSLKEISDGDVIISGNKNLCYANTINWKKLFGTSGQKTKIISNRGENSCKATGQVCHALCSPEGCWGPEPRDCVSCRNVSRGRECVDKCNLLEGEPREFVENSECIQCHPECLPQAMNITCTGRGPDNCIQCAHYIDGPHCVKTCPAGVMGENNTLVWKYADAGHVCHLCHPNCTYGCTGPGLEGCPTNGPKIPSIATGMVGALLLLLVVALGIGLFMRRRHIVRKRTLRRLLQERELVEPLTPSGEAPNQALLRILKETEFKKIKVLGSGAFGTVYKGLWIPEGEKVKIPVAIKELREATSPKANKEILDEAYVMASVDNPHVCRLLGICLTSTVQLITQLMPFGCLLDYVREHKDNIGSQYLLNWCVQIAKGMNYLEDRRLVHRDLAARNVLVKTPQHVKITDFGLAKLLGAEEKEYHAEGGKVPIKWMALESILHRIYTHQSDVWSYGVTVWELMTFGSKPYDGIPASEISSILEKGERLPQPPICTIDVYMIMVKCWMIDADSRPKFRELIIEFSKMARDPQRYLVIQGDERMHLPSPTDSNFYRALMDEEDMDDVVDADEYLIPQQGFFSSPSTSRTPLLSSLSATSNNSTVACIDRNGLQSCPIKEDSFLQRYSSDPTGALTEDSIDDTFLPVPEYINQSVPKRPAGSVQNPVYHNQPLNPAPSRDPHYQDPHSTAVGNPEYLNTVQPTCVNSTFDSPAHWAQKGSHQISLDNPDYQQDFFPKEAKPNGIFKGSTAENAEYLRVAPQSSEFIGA

[20] = Half life in Sprague-Dawley rat at 10 mg/kg, iv measured for 24 hrs by LC-MS/MS analysis; assay type: ADME, organism-based; conditions: in vivo
[21] = Cmax in Sprague-Dawley rat at 40 mg/kg, po measured for 24 hrs by LC-MS/MS analysis; assay type: ADME, organism-based; conditions: in vivo
PC-9 = test: Antiproliferative activity against human PC-9 cells expressing EGFR del19 mutant measured after 72 hrs by SRB assay; conditions: PC-9, 72 h
cells = conditions: Homo sapiens, NCI-H1975, 72 h
[22] = MRTlast in Sprague-Dawley rat at 40 mg/kg, po measured for 24 hrs by LC-MS/MS analysis; assay type: ADME, organism-based; conditions: in vivo
[23] = biological target: Lysine-specific histone demethylase 1A (Homo sapiens) (UniProt O60341); test: Binding affinity to LSD1 in human NCI-H1975 cells assessed as increase in thermal stability incubated for 1 hr followed by 40 to 53 degreeC of heat exposure for 3 mins by CETSA; assay type: cell-based; conditions: tested as the 2H-labelled form
[24] = biological target: T2, LSD1/CoREST complex (Homo sapiens) (UniProt O60341+Q9UKL0); test: Inhibition of full-length recombinant LSD1 (123 to 852 residues)(unknown origin)/CoREST (305 to 482 residues)(unknown origin) extracted from Escherichia coli using H3K4me2 as substrate at 10 uM preincubated for 5 mins followed by substrate addition measured after 30 mins by HRP/Amplex Red based fluorescence assay relative to control; assay type: protein-complex assay; conditions: time 35.0 min, tested as the 2H-labelled form
T2 sequence (Q9UKL0 whole entry, looked up, other chains not shown, the tested form may be a part): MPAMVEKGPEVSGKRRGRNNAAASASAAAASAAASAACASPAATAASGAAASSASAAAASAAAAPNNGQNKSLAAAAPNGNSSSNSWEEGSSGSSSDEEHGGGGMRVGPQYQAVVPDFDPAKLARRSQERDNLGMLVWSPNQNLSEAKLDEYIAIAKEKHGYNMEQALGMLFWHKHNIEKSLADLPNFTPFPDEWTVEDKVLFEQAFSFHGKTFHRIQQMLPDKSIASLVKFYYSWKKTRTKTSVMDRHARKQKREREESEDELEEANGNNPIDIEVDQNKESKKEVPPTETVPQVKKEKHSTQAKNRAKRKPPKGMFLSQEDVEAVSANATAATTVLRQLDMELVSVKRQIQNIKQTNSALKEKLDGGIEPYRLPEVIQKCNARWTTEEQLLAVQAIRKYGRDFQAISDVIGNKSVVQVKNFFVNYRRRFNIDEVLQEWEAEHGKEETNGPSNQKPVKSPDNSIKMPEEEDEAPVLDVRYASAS

[25] = biological target: T2, LSD1/CoREST complex (Homo sapiens); test: Reversible non-covalent inhibition of LSD1/CoREST (unknown origin) using H3K4me2 as substrate assessed as LSD1 activity recovery after LSD1-compound mixture dilution incubated for 1 hr by HRP/Amplex Red based fluorescence assay; assay type: protein-complex assay; conditions: tested as the 2H-labelled form
[26] = biological target: Lysine-specific histone demethylase 1A (Homo sapiens) (UniProt O60341); test: Inhibition of LSD1 in human NCI-H1975 cells assessed as accumulation of H3K9me2 at 0.1 to 10 uM by Western blot analysis; assay type: cell-based; conditions: dose 0.1-10 µM, tested as the 2H-labelled form
Mus musculus [27] = test: In vivo inhibition of LSD1 in athymic nude BALB/c mouse xenografted with human NCI-H1975 cells assessed as H3K9me2 accumulation at 1.5 to 3 mg/kg, po daily for 27 days by Western blot analysis; assay type: functional, organism-based; conditions: dose 1.5-3 mg/kg, time 27.0 day, tested as the 2H-labelled form
NCI-H1975 [28] = test: Antitumor activity against human NCI-H1975 cells xenografted in athymic nude BALB/c mouse administered orally daily for 27 days; assay type: functional, cell-based; conditions: dose 1.5-3 mg/kg, route po, time 27.0 day, tested as the 2H-labelled form
Mus musculus [29] = test: In vivo inhibition of EGFR phosphorylation in athymic nude BALB/c mouse xenografted with human NCI-H1975 cells at 1.5 to 3 mg/kg, po daily for 27 days by Western blot analysis; assay type: functional, organism-based; conditions: dose 1.5-3 mg/kg, time 27.0 day, tested as the 2H-labelled form
[30] = biological target: T2, LSD1/CoREST complex (Homo sapiens); test: Inhibition of full-length recombinant LSD1 (123 to 852 residues)(unknown origin)/CoREST (305 to 482 residues)(unknown origin) extracted from Escherichia coli using H3K4me2 as substrate at 1 uM preincubated for 5 mins followed by substrate addition measured after 30 mins by HRP/Amplex Red based fluorescence assay relative to control; assay type: protein-complex assay; conditions: time 35.0 min, tested as the 2H-labelled form
Mus musculus [31] = test: In vivo inhibition of LSD1 in athymic nude BALB/c mouse xenografted with human NCI-H1975 cells assessed as H3K4me2 accumulation at 1.5 to 3 mg/kg, po daily for 27 days by Western blot analysis; assay type: functional, organism-based; conditions: dose 1.5-3 mg/kg, time 27.0 day, tested as the 2H-labelled form
[32] = biological target: Lysine-specific histone demethylase 1A (Homo sapiens) (UniProt O60341); test: Inhibition of LSD1 in human NCI-H1975 cells assessed as accumulation of H3K4me2 at 0.1 to 10 uM by Western blot analysis; assay type: cell-based; conditions: dose 0.1-10 µM, tested as the 2H-labelled form
Mus musculus [33] = test: In vivo inhibition of EGFR in athymic nude BALB/c mouse xenografted with human NCI-H1975 cells assessed as decrease in ERK phosphorylation at 1.5 to 3 mg/kg, po daily for 27 days by Western blot analysis; assay type: functional, organism-based; conditions: dose 1.5-3 mg/kg, time 27.0 day, tested as the 2H-labelled form
[34] = MRT (infinity) in Sprague-Dawley rat at 40 mg/kg, po measured for 24 hrs by LC-MS/MS analysis; assay type: ADME, organism-based; conditions: in vivo
[35] = Half life in Sprague-Dawley rat at 40 mg/kg, po measured for 24 hrs by LC-MS/MS analysis; assay type: ADME, organism-based; conditions: in vivo
[36] = AUC (infinity) in Sprague-Dawley rat at 40 mg/kg, po measured for 24 hrs by LC-MS/MS analysis; assay type: ADME, organism-based; conditions: in vivo

Row | Compound | Tmax [1] | IC50 [2] | IC50 [3] | clearance [4] | Activity [5] | MRT last at 24 h [6] | AUC(0-t) at 24 h [7] | MRT inf [8] | Ki (LSD1/CoREST complex [9]) | IC50 (A-431) | AUC(0-inf) [10] | AUC(0-t) at 24 h [11] | bioavailability [12] | IC50 [13] | Activity [14] | IC50 (LSD1/CoREST complex [15]) | inhibition in vivo at 3 mg/kg (NCI-H1975 [16]) | Vd [18] | half-life [20] | Cmax [21] | further results
1 | [2H]C([2H])([2H])n1cc(-c2ccnc(Nc3cc(NC(=O)C=C)c(N4CCC(C)(N)CC4)cc3OC)n2)c2ccccc21 | 6 h | 1.6 µM | 1.37 µM | 33.8 mL/min/kg | Non-toxic | 7.17 h | 3740 ng·h/mL | 16 h | 2340 nM | 290 nM | 4940 ng·h/mL | 8840 ng·h/mL | 59.6% | 0.85 µM | Non-toxic | 8 µM | 51.3% | 32.3 L/kg | 780 min | 568 ng/mL | IC50 [17]: 6.8 nM; IC50 [19]: 788 nM; IC50 (PC-9): 0.93 µM; IC50 (cells): 70 nM; MRT last at 24 h [22]: 9.37 h
2 | C=CC(=O)Nc1cc(Nc2nccc(-c3cn(C)c4ccccc34)n2)c(OC)cc1N1CCC(C)(N)CC1 |  |  |  |  |  |  |  |  |  |  |  |  |  |  |  |  |  |  |  |  | Activity [23]: Active; inhibition [24]: 100%; inhibition [25]: Active; inhibition [26]: Active; inhibition (Mus musculus [27]): Active; Activity (NCI-H1975 [28]): Dose-dependent-effect; inhibition (Mus musculus [29]): Active; inhibition [30]: 36%; inhibition (Mus musculus [31]): Active; inhibition [32]: Active; inhibition (Mus musculus [33]): Active
3 | [2H]C([2H])([2H])n1cc(-c2ccnc(Nc3cc(NC(=O)C=C)c(N4CC[C@@H](N(C)C)C4)cc3OC)n2)c2ccccc21 | 5 h | 8.93 µM | 5.35 µM | 39.8 mL/min/kg | Non-toxic | 5.08 h | 4000 ng·h/mL | 6.51 h | 257 nM | 2460 nM | 4220 ng·h/mL | 10400 ng·h/mL | 65.1% | 6.73 µM | Non-toxic | 0.6 µM | 60.4% | 15.5 L/kg | 364 min | 724 ng/mL | MRT inf [34]: 8.14 h; half-life [35]: 374 min; AUC(0-inf) [36]: 9720 ng·h/mL; IC50 (PC-9): 6.81 µM; IC50 (cells): 1750 nM; MRT last at 24 h [22]: 6.76 h
